Source: patent US12012394B2, “Alpha-synuclein ligands” (Washington University, priority 2018, dated 2024)

How the values were obtained:
Aβ fibrils = Aβ fibrils (Homo sapiens (Human), UniProt P05067); assay: Homologous competition radioligand binding assay, Aβ fibrils; details: 150 nM Aβ fibrils
Method: Synthetic Aβ1-42 peptide (1 mg) (Bachem, Torrance, CA) was first dissolved in 50 μl DMSO. An additional 925 μl of mQ-H2O was added. Finally, 25 μl 1M Tris-HCl pH 7.6 was added to bring the final peptide concentration to 222 μM (1 mg/ml). The dissolved peptide was incubated for 30 h at 37° C. with shaking at 1000 rpm in an Eppendorf Thermomixer. Fibril formation was confirmed by ThioT fluorescence. To determine the concentration of fibrils, the fibril reaction mix was centrifuged at 15,000×g for 15 min to separate fibrils from monomer. The concentration of Aβ monomer in the supernatant was determined in a BCA protein assay using a BSA standard curve that contained DMSO at a percentage equivalent to the samples. […]
These direct binding assays used a fixed concentration of either fibrils or PD/AD tissue and the radioligand (e.g., [^18F]28) and varying concentration ranges of corresponding homologous non-radiolabeled standard reference compound. […] Reactions were incubated at 37° C. for 1 h before quantifying bound radioligand. […] Filters containing the bound ligand were mixed with 150 μL of Optiphase Supermix scintillation cocktail (PerkinElmer) and counted immediately. […] The dissociation constant (Kd) and the maximal number of binding sites (Bmax) values were determined by fitting the data to the equation. […]

PD-seeded fibrils = PD-seeded fibrils (Homo sapiens (Human), UniProt P37840); assay: Heterologous competition binding assay with [18F]TZ61-44 as radioligand; details: radioligand [18F]TZ61-44, 25 nM PD-seeded fibrils
Method: The equilibrium inhibitor constant (Ki) of a series of compounds was measured using heterologous radioactive binding assays with [^18F]TZ61-44, […], or [^125I]TZ61-84 as the screening radioligands. EC50 values for each compound were determined by fitting the data to the equation Y=Bottom+(Top−Bottom)/(1+(X−Log EC50)^−Hillcoefficient) using nonlinear regression by Kaleidagraph software, where Top and Bottom are the Y values for the top and bottom plateaus of the binding curve. The Ki values were derived from the EC50 values using the Cheng-Prusoff equation: Ki=EC50/(1+[radioligand]/Kd). FIGS. 5A-5E show the inhibition curves for TG-1-90B, TZ55-101, TZ61-84, TZ55-107, and TZ55-81 using [^18F]TZ61-44 as the radioligand. FIG. 11B-C show the inhibition curves for two separate experiments on PD fibrils for TZ55-101 using […] as the radioligand. FIGS. 12A-12F show the inhibition curves for TZ66-3, TZ64-015, TZ64-016, TZ64-018, TZ64-019, and TZ64-020 using [^18F]TZ61-44 as the radioligand. FIGS. 13A-13D show the inhibition curves for TZ66-9, TZ66-8, and TZ55-107 using [^18F]TZ61-44 as the radioligand.

Aβ fibrils, sequence (P05067 672-713): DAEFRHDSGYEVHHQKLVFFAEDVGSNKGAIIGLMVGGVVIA

Kd (Aβ fibrils): 12 nM | EC50 (PD-seeded fibrils): 46 nM | Ki (PD-seeded fibrils; Cheng-Prusoff from EC50): 43 nM
Compound: COc1ccc2nc(-c3csc(C=O)c3)ccc2c1 [TZ55-81]
